Consider 28 compounds from ChEMBL document CHEMBL1152763, “Synthesis, cytotoxic activity, and DNA binding properties of antitumor cis-1,2-dihydroxy-1,2-dihydrobenzo[b]acronycine cinnamoyl esters” (Bioorg Med Chem, 2009).

pIC50: −log10 of the molar value. Activity calls are given as the source filed them. The rule behind the calls is not given here. Some results are limits rather than exact numbers.

As usually defined, the pIC50 is the IC50 on a negative log10 scale, so that one unit is a factor of ten. Usually inhibition in vivo stands for the change of the read-out against control, counted positive when it falls.

For one assay, the system named is L1210. The assay can be described thus: Cytotoxicity against mouse L1210 cells after 48 hrs by microculture tetrazolium assay. It is filed as functional, cell-based. The following applies: for pIC50: Mus musculus, L1210, 48 h, read-out: IC50.
Assay [1] can be described thus: (§1) Cytotoxicity against human KB-3-1 cells after 96 hrs by microculture tetrazolium assay. It is filed as functional, cell-based. The following applies: KB 3-1, 96 h.
Assay [2] is described as follows: Binding affinity to pBS plasmid 117 base-pair DNA fragment assessed as half life of DNA alkylation by gel shift assay. On the technique in general: A gel shift assay detects complexes by their altered migration in electrophoresis.
Assay [3] has as its system MC-38. The assay can be described thus: Antitumor activity against mouse Colon 38 cells xenografted B6D2F1 mouse assessed as inhibition of tumor growth at 4 mg/kg, iv administered twice daily. It counts as functional.
The subject of assay [4] is MC-38. The assay can be described thus: Antitumor activity against mouse Colon 38 cells xenografted B6D2F1 mouse assessed as tumor free state at 4 mg/kg, iv administered twice daily on day 90 post drug dose. Also noted: dose 4 mg/kg. It counts as functional, organism-based.
Assay [5] deals with MC-38. Nature of the assay: Antitumor activity against mouse Colon 38 cells xenografted B6D2F1 mouse assessed as inhibition of tumor growth at 2 mg/kg, iv administered twice daily. It is filed as functional.
Assay [6] concerns MC-38. The assay can be described thus: Toxicity in mouse Colon 38 cells xenografted B6D2F1 mouse assessed as inhibition of tumor growth at 4 mg/kg, iv administered twice daily. It is filed as functional, organism-based. Details: dose 4 mg/kg.
A further assay relates to KB 3-1. The assay is described as §1. It counts as functional, cell-based.

Regarding `COc1cc2c(c3c1c(=O)c1cc4ccccc4cc1n3C)[C@@H](O)[C@@H](OC(=O)/C=C/c1ccc(Br)cc1)C(C)(C)O2` (racemic), the pIC50 was 7.30 in the assay with L1210 and 8.22 in assay [1]. The T1/2 in assay [2] was 1 h.
In the case of `COc1cc2c(c3c1c(=O)c1cc4ccccc4cc1n3C)[C@@H](OC(C)=O)[C@@H](OC(=O)/C=C/c1ccc(C(F)(F)F)cc1)C(C)(C)O2` (racemic), the pIC50 is 5.82 in the assay with L1210 and 6.52 in assay [1].
For `COc1ccc(/C=C/C(=O)O[C@@H]2[C@H](OC(C)=O)c3c(cc(OC)c4c(=O)c5cc6ccccc6cc5n(C)c34)OC2(C)C)cc1` (racemic), in that order: 5.92 and 6.62.
For the compound `COc1cc2c(c3c1c(=O)c1cc4ccccc4cc1n3C)[C@@H](OC(C)=O)[C@@H](OC(=O)/C=C/c1ccccc1)C(C)(C)O2` (racemic), the results for the negative logarithm of the IC50 (pIC50) (in the assay with L1210; in assay [1]) were 5.96 and 6.82, respectively. In addition, the T1/2 in assay [2] was found to be 1.5 h.
On to `COc1cc2c(c3c1c(=O)c1cc4ccccc4cc1n3C)[C@@H](OC(C)=O)[C@@H](OC(=O)/C=C/c1cccc(Br)c1)C(C)(C)O2` (racemic), for which the pIC50 in the assay with L1210 is 6.22; in assay [1], 6.92.
Regarding `COc1ccc(/C=C/C(=O)O[C@@H]2[C@H](O)c3c(cc(OC)c4c(=O)c5cc6ccccc6cc5n(C)c34)OC2(C)C)cc1OC` (racemic), the figures for the pIC50 (in the assay on L1210; in assay [1]) were 5.96 and 7.10, respectively.
With `COc1cc2c(c3c1c(=O)c1cc4ccccc4cc1n3C)[C@@H](OC(C)=O)[C@@H](OC(C)=O)C(C)(C)O2` (racemic), the pIC50 is 6.10 in the assay on L1210 and 7.00 in assay [1]. Further, the T1/2 in assay [2] stood at 0.5 h. In addition, the inhibition in vivo at 4 mg/kg in the assay with MC-38 [3] worked out at 99%. Besides, the outcome in the assay on MC-38 [4] was Active.
Turning to `COc1cc2c(c3c1c(=O)c1cc4ccccc4cc1n3C)[C@@H](OC(C)=O)[C@@H](OC(=O)/C=C/c1ccc(Cl)cc1)C(C)(C)O2` (racemic), the pIC50 in the assay on L1210 was 6.30; in assay [1], 7.15. Further, the T1/2 in assay [2] is 6 h.
In the case of `COc1cc2c(c3c1c(=O)c1cc4ccccc4cc1n3C)[C@@H](O)[C@@H](OC(=O)/C=C/c1cccc(Cl)c1)C(C)(C)O2` (racemic), the pIC50 is 7.22 in the assay on L1210 and 7.70 in assay [1].
For the compound `COc1cc2c(c3c1c(=O)c1cc4ccccc4cc1n3C)[C@@H](OC(C)=O)[C@@H](OC(=O)/C=C/c1ccc(Cl)cc1Cl)C(C)(C)O2` (racemic), the pIC50 in the assay with L1210 is 6.22; in assay [1], 7.05.
For `COc1cc2c(c3c1c(=O)c1cc4ccccc4cc1n3C)[C@@H](OC(C)=O)[C@@H](OC(=O)/C=C/c1ccccc1Cl)C(C)(C)O2` (racemic), in that order: 6.22 and 7.05.
Take `COc1cc2c(c3c1c(=O)c1cc4ccccc4cc1n3C)[C@@H](O)[C@@H](OC(=O)/C=C/c1ccc(Cl)cc1)C(C)(C)O2` (racemic): the pIC50 is 7.40 with L1210 and 8.10 in assay [1]. Also, the T1/2 in assay [2] stood at 1 h.
With `COc1cc2c(c3c1c(=O)c1cc4ccccc4cc1n3C)[C@@H](O)[C@@H](OC(=O)/C=C/c1cccc(C(F)(F)F)c1)C(C)(C)O2` (racemic), the pIC50 is 7.00 in the assay on L1210 and 7.82 in assay [1].
For `COc1cc2c(c3c1c(=O)c1cc4ccccc4cc1n3C)[C@@H](OC(C)=O)[C@@H](OC(=O)/C=C/c1ccc(Cl)c(Cl)c1)C(C)(C)O2` (racemic), the pIC50 is 6.40 in the assay on L1210 and 7.30 in assay [1]. Moreover, the T1/2 in assay [2] was over 24 h. The inhibition in vivo at 4 mg/kg in the assay on MC-38 [3] was 84%.
With `COc1cc2c(c3c1c(=O)c1cc4ccccc4cc1n3C)[C@@H](OC(C)=O)[C@@H](OC(=O)/C=C/c1ccc([N+](=O)[O-])cc1)C(C)(C)O2` (racemic), the values for the pIC50 (in the assay with L1210; in assay [1]) were 6.30 and 6.85, respectively.
On to `COc1cc2c(c3c1c(=O)c1cc4ccccc4cc1n3C)[C@@H](O)[C@@H](OC(C)=O)C(C)(C)O2` (racemic), for which the figures for the pIC50 (in the assay with L1210; in assay [1]) were 6.21 and 6.80, respectively. Besides, the T1/2 in assay [2] was determined as 0.0833 h.
For the compound `COc1cc2c(c3c1c(=O)c1cc4ccccc4cc1n3C)[C@@H](O)[C@@H](OC(=O)/C=C/c1ccc([N+](=O)[O-])cc1)C(C)(C)O2` (racemic), the pIC50 with L1210 was 6.62; in assay [1], 7.52.
For `COc1ccc(/C=C/C(=O)O[C@@H]2[C@H](O)c3c(cc(OC)c4c(=O)c5cc6ccccc6cc5n(C)c34)OC2(C)C)cc1` (racemic), in that order: 6.89 and 7.52.
With `COc1cc2c(c3c1c(=O)c1cc4ccccc4cc1n3C)[C@@H](OC(C)=O)[C@@H](OC(=O)/C=C/c1ccc(Br)cc1)C(C)(C)O2` (racemic), the results for the pIC50 (with L1210; in assay [1]) were 6.15 and 7.10, respectively. Also, the T1/2 in assay [2] was determined as 6 h.
With `COc1cc2c(c3c1c(=O)c1cc4ccccc4cc1n3C)[C@@H](O)[C@@H](OC(=O)/C=C/c1ccc(Cl)c(Cl)c1)C(C)(C)O2` (racemic), the pIC50 in the assay with L1210 was 7.46; in assay [1] it was 8.22. The T1/2 in assay [2] stood at 1 h. For the same compound, the inhibition in vivo at 2 mg/kg in the assay with MC-38 [5] came out at 90%. The Activity result with MC-38 [6] was “Toxic”.
For the compound `COc1cc2c(c3c1c(=O)c1cc4ccccc4cc1n3C)[C@@H](O)[C@@H](OC(=O)/C=C/c1cccc(Br)c1)C(C)(C)O2` (racemic), the figures for the pIC50 (in the assay with L1210; in assay [1]) were 7.10 and 7.70, respectively.
For the compound `COc1cc2c(c3c1c(=O)c1cc4ccccc4cc1n3C)[C@@H](OC(C)=O)[C@@H](OC(=O)/C=C/c1cccc(Cl)c1)C(C)(C)O2` (racemic), in the assay with L1210 (l1210), the IC50 entry is “Insoluble”. For the same compound, the solubility entry in the assay on KB 3-1 was “Not soluble”.
For `COc1cc2c(c3c1c(=O)c1cc4ccccc4cc1n3C)[C@@H](O)[C@@H](OC(=O)/C=C/c1ccc(C(F)(F)F)cc1)C(C)(C)O2` (racemic), the pIC50 in the assay on L1210 was 7.05; in assay [1], 7.70.
For `COc1cc2c(c3c1c(=O)c1cc4ccccc4cc1n3C)[C@@H](OC(C)=O)[C@@H](OC(=O)/C=C/c1cccc(C(F)(F)F)c1)C(C)(C)O2` (racemic), in that order: 6.15 and 7.22.
In the case of `COc1cc2c(c3c1c(=O)c1cc4ccccc4cc1n3C)[C@@H](O)[C@@H](OC(=O)/C=C/c1ccccc1)C(C)(C)O2` (racemic), the pIC50 with L1210 was 6.92; in assay [1] it was 7.52. Moreover, the T1/2 in assay [2] came to 0.333 h.
Regarding `COc1cc2c(c3c1c(=O)c1cc4ccccc4cc1n3C)[C@@H](O)[C@@H](OC(=O)/C=C/c1ccc(Cl)cc1Cl)C(C)(C)O2` (racemic), the pIC50 with L1210 was 7.46; in assay [1], 8.22.
For `COc1cc2c(c3c1c(=O)c1cc4ccccc4cc1n3C)[C@@H](O)[C@@H](OC(=O)/C=C/c1ccccc1Cl)C(C)(C)O2` (racemic), in that order: 7.30 and 7.70.
In the case of `COc1ccc(/C=C/C(=O)O[C@@H]2[C@H](OC(C)=O)c3c(cc(OC)c4c(=O)c5cc6ccccc6cc5n(C)c34)OC2(C)C)cc1OC` (racemic), the pIC50 with L1210 is 6.05; in assay [1], 6.82.
